In brackets after ≈: the same amount, converted by molar mass.
Key:
Format in all cases: functional
Staphylococcus aureus [1] = assay: Compound tested in vitro for antibacterial activity against Staphylococcus aureus (S18713)
Enterococcus faecalis = assay: Compound tested in vitro for antibacterial activity against Streptococcus faecalis(MGH-2)
Staphylococcus aureus [2] = assay: Compound tested in vitro for antibacterial activity against Staphylococcus aureus(UC-76)

Structure (SMILES)	MIC (Staphylococcus aureus [1])	MIC (Enterococcus faecalis)	MIC (Staphylococcus aureus [2])
CN(C)/C=N\c1nc(/N=C/N(C)C)nc2ncc(Sc3ccc(Cl)c(Cl)c3)nc12	> 25 µg/mL	< 0.25 µg/mL	> 25 µg/mL
COc1ccc(Sc2cnc3nc(N)nc(N)c3n2)cc1	2 µg/mL (≈ 6.66 µM)	< 0.25 µg/mL	2 µg/mL (≈ 6.66 µM)
Nc1nc(N)c2nc(Sc3ccc4ccccc4c3)cnc2n1	> 25 µg/mL	1.5 µg/mL (≈ 4.68 µM)	> 25 µg/mL
Nc1nc(N)c2nc(Sc3ccc(Cl)c(Cl)c3)cnc2n1	> 25 µg/mL	2 µg/mL (≈ 5.9 µM)	> 25 µg/mL
Nc1nc(N)c2nc(Sc3cc(Cl)c(Cl)cc3Cl)cnc2n1	> 25 µg/mL	5 µg/mL (≈ 13.4 µM)	> 25 µg/mL

Now those with a lower MIC (Staphylococcus aureus [1]), led by results:

MIC (Staphylococcus aureus [1])	MIC (Enterococcus faecalis)	MIC (Staphylococcus aureus [2])	Structure (SMILES)
< 0.25 µg/mL	< 0.25 µg/mL	< 0.25 µg/mL	Nc1nc(N)c2nc(Sc3cccc(C(F)(F)F)c3)cnc2n1
1.5 µg/mL (≈ 4.68 µM)	< 0.25 µg/mL	< 0.25 µg/mL	Nc1nc(N)c2nc(Sc3cccc4ccccc34)cnc2n1
